Data reported in patent publication US9408859B2, “Pharmaceutical compositions useful for preventing and treating cancer” (Mitotech SA, priority 2007, dated 2016).
Peptide text beside a SMILES is read from it. * marks the point of attachment. Cbz = O=C(OCc1ccccc1)*; CH2F = FC*

Experiments:
[1] = system: Lung Lewis's carcinoma; assay: SkQ1 combined with doxorubicin on growth of lung Lewis's carcinoma; format: in vivo, mouse; conditions: regime per group
Procedure: For development of oncological diseases joint therapy that combines SkQ1 and chemotherapy, a study on SkQ1 influence on single doxorubicin injection efficiency was performed (one of the mechanisms of the preparation is activation of oxidative processes in normal and cancerous cells). SkQ1 was introduced before, simultaneously, or after introduction of doxorubicin in maximum dose of 500 nM/kg (in order to block oxidative mechanism of doxorubicin influence).
Doxorubicin was applied before, after, and during the course of SkQ1.

[2] = system: human rhabdomyosarcoma cell line (RD); assay: Apoptosis in RD cells (Hoechst staining, propidium iodide flow cytometry); format: cell-based; conditions: for Induction of apoptosis: 1 mM NAC or 100 mM Trolox for 24 hours
Procedure: To determine the viability of the cells, chromatine condensation and fragmentation was analyzed in similarly-treated cells (20 nM SkQ or 1 mM NAC or 100 mM Trolox for 24 hours and 1 μm FCCP one hour before SkQ1 where indicated) after staining with Hoechst 3342 (GenScript, Cat. No. L00309, performed according to manufacture manual http://www.genscript.com/tech_guide/TM0361.pdf). The cells were then examined using an Axiovert fluorescent microscope equipped with objectives 20× (dry) and 100× (oil immersion Neofluar) (Carl Zeiss).
Further evidence of apoptosis was obtained by analysis of DNA content in the cellular population using flow cytometry. Cells were incubated with 0.05% ethanol was added (control) or with 20 nM SkQ1 for 24 hours, and then fixed and stained with propidium iodide (5 μM). They were then analyzed by flow cytometry using a FC-500 FACS (Beckman Coulter, Inc., Brea, Calif.).

[3] = system: tumor xenografts (tumors of epithelial cancers); conditions: as stated in WO2006005759, cited from earlier work
[4] = system: human rhabdomyosarcoma cell line (RD); assay: RD cell morphology, attachment and multinuclear cells; format: cell-based; conditions: 20 nM, pretreatment for 24 hours
Procedure: In the following experiment, a human rhabdomyosarcoma cell line (RD) purchased from the ATCC (#CCL-136) was used. These cells were isolated from a […] 7 years ago and are widely accepted as a model for studies of rhabdomyosarcoma in vitro and in vivo.
The cells were grown in Dulbecco's modified Eagle's medium (DMEM, Gibco®, Invitrogen, Carlsbad, Calif.) supplemented with 10% FBS. The cells were treated with 20 nM SkQ (SkQ1, SkQR1, SkQB1, or SkQBP1), or with a non-targeted antioxidant (1 mM NAC, or 100 μM Trolox) 24 to 72 hours before evaluation. In some experiments 1 μM of the protonophorous uncoupler FCCP was added 1 hour before the addition of SkQ1 to depolarize the mitochondrial membrane, and thus to prevent the electrophoretic accumulation of SkQ in the mitochondrial interior. The cells were then stained with rabbit polyclonal antibodies against actin (1:1000) (Sigma-Aldrich Corp., Baleras, Russia) and monoclonal antibody DM1A against tubulin (1:1000) (Sigma-Aldrich Corp.), and their morphology examined using an Axiovert fluorescent microscope equipped with objectives 20× (dry) and 100× (oil immersion Neofluar) (Carl Zeiss, Germany).

In the case of `COc1cccc2c1C(=O)c1c(O)c3c(c(O)c1C2=O)C[C@@](O)(C(=O)CO)C[C@@H]3O[C@H]1C[C@H](N)[C@H](O)[C@H](C)O1` [DOX, doxorubicin, reference compound], the “TGS %, by tumor volume” value ([1]; Day 10) is reported as 26%, the “TGS %, by tumor volume” value ([1]; Day 14) is reported as 38% and the “TGS %, by tumor volume” value ([1]; Day 14, listed as doxorubicin) is reported as 36%. The “TGS %, by tumor volume” value ([1]; Day 17) was 35% and the “TGS %, by tumor volume” value ([1]; Day 21) was 30%.

For `N#CC(C#N)=NNc1ccc(OC(F)(F)F)cc1` [FCCP], the “Effect on pro-apoptotic action of SkQs” value ([2]; 1 μm FCCP one hour before SkQ1) was “prevented their pro-apoptotic action”.

For `COC1=C(OC)C(=O)C(CCCCCCCCCC[P+](c2ccccc2)(c2ccccc2)c2ccccc2)=C(C)C1=O` [MitoQ], the necrosis [3] is given as “increased necrosis”, the “vascularization of the tumor xenografts” value [3] is given as “decreased vascularization” and the tumor size ([3]; no experimental data shown) is given as “tumor size reduction”.

In the case of `CC(=O)N[C@@H](CS)C(=O)O` [NAC], the Induction of apoptosis [2] is reported as “induced apoptosis in RD cells but only at much higher concentrations”.

With `COc1ccc2c(CC(=O)OCCCCCCCC3=CC(=O)C(C)=C(C)C3=O)c3[n+](cc2c1OC)CCc1cc2c(cc1-3)OCO2` [SkQB1] the Cell morphology [4] was “induced the formation of elongated cells”.

In the case of `COc1cc2c(cc1OC)-c1c(CC(=O)OCCCCCCCC3=CC(=O)C(C)=C(C)C3=O)c3ccc(OC)c(OC)c3c[n+]1CC2` [SkQBP1], the Cell morphology [4] is reported as “induced the formation of elongated cells”.

In the case of `Cc1c(C)c2c(c(C)c1O)CCC(C)(C(=O)O)O2` (centres unmarked) [Trolox], the Induction of apoptosis [2] is reported as “induced apoptosis in RD cells but only at much higher concentrations”.

With `COC(=O)C[C@H](NC(=O)[C@H](C)NC(=O)[C@@H](NC(=O)OCc1ccccc1)C(C)C)C(=O)CF` [zVADfmk] (Cbz-Val-Ala-Asp(OMe)-CH2F) the “Effect on cell death caused by SkQs” value ([2]; pan-caspase inhibitor) was “Cell death was prevented”.
